According to ChEMBL document CHEMBL4393680, “Design, synthesis and biological evaluation of novel thioquinazolinone-based 2-aminobenzamide derivatives as potent histone deacetylase (HDAC) inhibitors” (Eur J Med Chem, 2019):

Assays:
[1] = test system: A-375; assay: Antiproliferative activity against human A375 cells assessed as reduction in cell growth at 2 uM incubated for 72 hrs by CCK-8 assay relative to control; assay type: functional; conditions: A-375, 72 h
[2] = test system: SMMC-7721; assay: Antiproliferative activity against human SMMC7721 cells assessed as reduction in cell growth at 2 uM incubated for 72 hrs by CCK-8 assay relative to control; assay type: functional; conditions: SMMC-7721, 72 h
[3] = test system: HeLa; assay: Antiproliferative activity against human HeLa cells assessed as reduction in cell growth incubated for 72 hrs by CCK-8 assay; assay type: functional, cell-based
[4] = test system: HCT-116; assay: Antiproliferative activity against human HCT116 cells assessed as reduction in cell growth at 8 uM incubated for 72 hrs by CCK-8 assay relative to control; assay type: functional; conditions: HCT-116, 72 h
[5] = test system: HCT-116; assay: Antiproliferative activity against human HCT116 cells assessed as reduction in cell growth at 2 uM incubated for 72 hrs by CCK-8 assay relative to control; assay type: functional; conditions: HCT-116, 72 h
[6] = test system: HeLa; assay: Antiproliferative activity against human HeLa cells assessed as reduction in cell growth at 8 uM incubated for 72 hrs by CCK-8 assay relative to control; assay type: functional
[7] = test system: HeLa; assay: Antiproliferative activity against human HeLa cells assessed as reduction in cell growth at 2 uM incubated for 72 hrs by CCK-8 assay relative to control; assay type: functional
[8] = test system: SMMC-7721; assay: Antiproliferative activity against human SMMC7721 cells assessed as reduction in cell growth at 8 uM incubated for 72 hrs by CCK-8 assay relative to control; assay type: functional; conditions: SMMC-7721, 72 h
[9] = test system: A-375; assay: Antiproliferative activity against human A375 cells assessed as reduction in cell growth at 8 uM incubated for 72 hrs by CCK-8 assay relative to control; assay type: functional; conditions: A-375, 72 h
[10] = test system: A-375; assay: Antiproliferative activity against human A375 cells assessed as reduction in cell growth incubated for 72 hrs by CCK-8 assay; assay type: functional, cell-based; conditions: A-375, 72 h
[11] = test system: HCT-116; assay: Antiproliferative activity against human HCT116 cells assessed as reduction in cell growth incubated for 72 hrs by CCK-8 assay; assay type: functional, cell-based; conditions: HCT-116, 72 h
[12] = test system: A549; assay: Antiproliferative activity against human A549 cells assessed as reduction in cell growth at 2 uM incubated for 72 hrs by CCK-8 assay relative to control; assay type: functional; conditions: A549, 72 h
[13] = test system: SMMC-7721; assay: Antiproliferative activity against human SMMC7721 cells assessed as reduction in cell growth incubated for 72 hrs by CCK-8 assay; assay type: functional, cell-based; conditions: SMMC-7721, 72 h
[14] = test system: A549; assay: Antiproliferative activity against human A549 cells assessed as reduction in cell growth at 8 uM incubated for 72 hrs by CCK-8 assay relative to control; assay type: functional; conditions: A549, 72 h
[15] = test system: A549; assay: Antiproliferative activity against human A549 cells assessed as reduction in cell growth incubated for 72 hrs by CCK-8 assay; assay type: functional, cell-based; conditions: A549, 72 h
[16] = test system: SMMC-7721; assay: Cell cycle arrest in human SMMC7721 cells assessed as accumulation at S phase at 0.25 uM incubated for 48 hrs by propidium iodide staining based flow cytometry (Rvb=6.83%); assay type: functional
[17] = test system: SMMC-7721; assay: Induction of apoptosis in human SMMC7721 cells assessed as late apoptotic cells at 1 uM incubated for 48 hrs by Annexin-V-FITC/propidium iodide staining based flow cytometry (Rvb=1.73%); assay type: functional
[18] = test system: SMMC-7721; assay: Induction of apoptosis in human SMMC7721 cells assessed as early apoptotic cells at 0.25 uM incubated for 48 hrs by Annexin-V-FITC/propidium iodide staining based flow cytometry (Rvb=2.88%); assay type: functional
[19] = test system: SMMC-7721; assay: Induction of apoptosis in human SMMC7721 cells assessed as viable cells at 1 uM incubated for 48 hrs by Annexin-V-FITC/propidium iodide staining based flow cytometry (Rvb=93.5%); assay type: functional; conditions: SMMC-7721, 48 h, read-out: Activity
[20] = test system: SMMC-7721; assay: Cell cycle arrest in human SMMC7721 cells assessed as accumulation at G0/G1 phase at 0.25 uM incubated for 48 hrs by propidium iodide staining based flow cytometry (Rvb=77%); assay type: functional
[21] = test system: SMMC-7721; assay: Induction of apoptosis in human SMMC7721 cells assessed as viable cells at 4 uM incubated for 48 hrs by Annexin-V-FITC/propidium iodide staining based flow cytometry (Rvb=93.5%); assay type: functional; conditions: SMMC-7721, 48 h, read-out: Activity
[22] = test system: NIH3T3; assay: Cytotoxicity against mouse NIH/3T3 cells assessed as reduction in cell viability after 48 hrs by CCK8 assay; assay type: cell-based; conditions: NIH3T3, 48 h
[23] = test system: SMMC-7721; assay: Induction of apoptosis in human SMMC7721 cells assessed as early apoptotic cells at 4 uM incubated for 48 hrs by Annexin-V-FITC/propidium iodide staining based flow cytometry (Rvb=2.88%); assay type: functional
[24] = test system: SMMC-7721; assay: Induction of apoptosis in human SMMC7721 cells assessed as necrotic cells at 4 uM incubated for 48 hrs by Annexin-V-FITC/propidium iodide staining based flow cytometry (Rvb=1.88%); assay type: functional
[25] = test system: SMMC-7721; assay: Cell cycle arrest in human SMMC7721 cells assessed as accumulation at G0/G1 phase at 1 uM incubated for 48 hrs by propidium iodide staining based flow cytometry (Rvb=77%); assay type: functional
[26] = test system: SMMC-7721; assay: Induction of apoptosis in human SMMC7721 cells assessed as late apoptotic cells at 4 uM incubated for 48 hrs by Annexin-V-FITC/propidium iodide staining based flow cytometry (Rvb=1.73%); assay type: functional
[27] = test system: SMMC-7721; assay: Induction of apoptosis in human SMMC7721 cells assessed as necrotic cells at 0.25 uM incubated for 48 hrs by Annexin-V-FITC/propidium iodide staining based flow cytometry (Rvb=1.88%); assay type: functional
[28] = test system: SMMC-7721; assay: Induction of apoptosis in human SMMC7721 cells assessed as early apoptotic cells at 1 uM incubated for 48 hrs by Annexin-V-FITC/propidium iodide staining based flow cytometry (Rvb=2.88%); assay type: functional
[29] = test system: SMMC-7721; assay: Cell cycle arrest in human SMMC7721 cells assessed as accumulation at G2/M phase at 4 uM incubated for 48 hrs by propidium iodide staining based flow cytometry (Rvb=16.17%); assay type: functional
[30] = test system: SMMC-7721; assay: Induction of apoptosis in human SMMC7721 cells assessed as necrotic cells at 1 uM incubated for 48 hrs by Annexin-V-FITC/propidium iodide staining based flow cytometry (Rvb=1.88%); assay type: functional
[31] = test system: SMMC-7721; assay: Cell cycle arrest in human SMMC7721 cells assessed as accumulation at S phase at 4 uM incubated for 48 hrs by propidium iodide staining based flow cytometry (Rvb=6.83%); assay type: functional
[32] = test system: SMMC-7721; assay: Cell cycle arrest in human SMMC7721 cells assessed as accumulation at S phase at 1 uM incubated for 48 hrs by propidium iodide staining based flow cytometry (Rvb=6.83%); assay type: functional
[33] = test system: SMMC-7721; assay: Induction of apoptosis in human SMMC7721 cells assessed as late apoptotic cells at 0.25 uM incubated for 48 hrs by Annexin-V-FITC/propidium iodide staining based flow cytometry (Rvb=1.73%); assay type: functional
[34] = test system: SMMC-7721; assay: Induction of apoptosis in human SMMC7721 cells assessed as viable cells at 0.25 uM incubated for 48 hrs by Annexin-V-FITC/propidium iodide staining based flow cytometry (Rvb=93.5%); assay type: functional; conditions: SMMC-7721, 48 h, read-out: Activity
[35] = test system: SMMC-7721; assay: Cell cycle arrest in human SMMC7721 cells assessed as accumulation at G0/G1 phase at 4 uM incubated for 48 hrs by propidium iodide staining based flow cytometry (Rvb=77%); assay type: functional
[36] = test system: SMMC-7721; assay: Cell cycle arrest in human SMMC7721 cells assessed as accumulation at G2/M phase at 1 uM incubated for 48 hrs by propidium iodide staining based flow cytometry (Rvb=16.17%); assay type: functional
[37] = test system: SMMC-7721; assay: Cell cycle arrest in human SMMC7721 cells assessed as accumulation at G2/M phase at 0.25 uM incubated for 48 hrs by propidium iodide staining based flow cytometry (Rvb=16.17%); assay type: functional

## Cn1c(SCc2ccc(C(=O)Nc3ccccc3N)cc2)nc2cc(Cl)ccc2c1=O
[1]
  inhibition at 2 µM: 44.5%
[2]
  inhibition at 2 µM: 38.9%
[3]
  IC50: 4990 nM
[4]
  inhibition at 8 µM: 81.5%
[5]
  inhibition at 2 µM: 58.7%
[6]
  inhibition at 8 µM: 76.5%
[7]
  inhibition at 2 µM: 51.1%
[8]
  inhibition at 8 µM: 73.2%
[9]
  inhibition at 8 µM: 51.2%
[10]
  IC50: 3.01 µM
[11]
  IC50: 2220 nM
[12]
  inhibition at 2 µM: 21.8%
[13]
  IC50: 3320 nM
[14]
  inhibition at 8 µM: 22.3%

## CCCn1c(SCc2ccc(/C=C/C(=O)Nc3ccccc3N)cc2)nc2cc(Cl)ccc2c1=O
[1]
  inhibition at 2 µM: 20.5%
[2]
  inhibition at 2 µM: 6.6%
[15]
  IC50: 3.96 µM
[4]
  inhibition at 8 µM: 27.3%
[5]
  inhibition at 2 µM: 18.2%
[6]
  inhibition at 8 µM: 41.5%
[7]
  inhibition at 2 µM: 32.7%
[8]
  inhibition at 8 µM: 40.2%
[9]
  inhibition at 8 µM: 48.2%
[12]
  inhibition at 2 µM: 34.3%
[14]
  inhibition at 8 µM: 61.5%

## Cn1c(SCc2ccc(/C=C/C(=O)Nc3ccccc3N)cc2)nc2cc(Cl)ccc2c1=O
[1]
  inhibition at 2 µM: 2.4%
[2]
  inhibition at 2 µM: 7.8%
[15]
  IC50: 16.4 µM
[4]
  inhibition at 8 µM: 21.5%
[5]
  inhibition at 2 µM: 2.1%
[6]
  inhibition at 8 µM: 38.8%
[7]
  inhibition at 2 µM: 29.3%
[8]
  inhibition at 8 µM: 20.9%
[9]
  inhibition at 8 µM: 10.2%
[12]
  inhibition at 2 µM: 15.5%
[14]
  inhibition at 8 µM: 68.8%

## COc1ccc2c(=O)n(CC/C=C/[S+](C)[O-])c(SCc3ccc(C(=O)Nc4ccccc4N)cc3)nc2c1 (stereo not drawn)
[1]
  inhibition at 2 µM: 34.4%
[2]
  inhibition at 2 µM: 6.9%
[3]
  IC50: 2690 nM
[15]
  IC50: 6.62 µM
[4]
  inhibition at 8 µM: 88%
[5]
  inhibition at 2 µM: 59%
[6]
  inhibition at 8 µM: 74.1%
[7]
  inhibition at 2 µM: 35.8%
[8]
  inhibition at 8 µM: 57.2%
[9]
  inhibition at 8 µM: 67.2%
[10]
  IC50: 2.82 µM
[11]
  IC50: 1590 nM
[12]
  inhibition at 2 µM: 36.9%
[14]
  inhibition at 8 µM: 56.3%

## Cc1cccc2c(=O)n(C)c(SCc3ccc(C(=O)Nc4ccccc4N)cc3)nc12
[1]
  inhibition at 2 µM: 48.3%
[2]
  inhibition at 2 µM: 54.3%
[15]
  IC50: 8.44 µM
[4]
  inhibition at 8 µM: 76.4%
[5]
  inhibition at 2 µM: 42.7%
[6]
  inhibition at 8 µM: 51.4%
[7]
  inhibition at 2 µM: 47.3%
[8]
  inhibition at 8 µM: 74.4%
[9]
  inhibition at 8 µM: 54.9%
[10]
  IC50: 5.26 µM
[11]
  IC50: 3060 nM
[12]
  inhibition at 2 µM: 38%
[13]
  IC50: 2670 nM
[14]
  inhibition at 8 µM: 66.8%

## Nc1ccccc1NC(=O)c1ccc(CNC(=O)OCc2cccnc2)cc1 [ENTINOSTAT]
[16]
  Activity: 9.47%
[1]
  inhibition at 2 µM: 30.2%
[17]
  Activity: 9.39%
[2]
  inhibition at 2 µM: 28.2%
[3]
  IC50: 2360 nM
[18]
  Activity: 4.13%
[15]
  IC50: 7.15 µM
[4]
  inhibition at 8 µM: 72.3%
[19]
  viability at 1 µM: 81.5%
[20]
  Activity: 75.1%
[21]
  viability at 4 µM: 53.9%
[5]
  inhibition at 2 µM: 67.3%
[6]
  inhibition at 8 µM: 89.8%
[22]
  IC50: 2420 nM
[7]
  inhibition at 2 µM: 42.4%
[23]
  Activity: 12.5%
[24]
  Activity: 5.64%
[8]
  inhibition at 8 µM: 48.7%
[25]
  Activity: 76.1%
[9]
  inhibition at 8 µM: 83.1%
[26]
  Activity: 27.9%
[27]
  Activity: 1.18%
[28]
  Activity: 6.66%
[29]
  Activity: 14.35%
[30]
  Activity: 2.5%
[31]
  Activity: 14.21%
[32]
  Activity: 9.55%
[33]
  Activity: 3.31%
[12]
  inhibition at 2 µM: 20%
[14]
  inhibition at 8 µM: 47.3%
[34]
  viability at 0.25 µM: 91.4%
[35]
  Activity: 71.44%
[36]
  Activity: 14.35%
[37]
  Activity: 15.43%
